Experimental data reported in US20090325959A1 (priority 2008, published 2009).
Like-named read-outs stand apart in the source and are kept apart here.

Experiments:
ROCK1 = biological target: T1, ROCK1 (Homo sapiens, UniProt Q13464); test: Rho kinase inhibition assay (IMAP fluorescence polarization), ROCK1; type: biochemical;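 further: kinase reaction run 60 min at room temperature, then phosphorylated substrate captured on IMAP beads for 30 min, with fluorescence polarization read in mP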
T1 construct: purchased Upstate/Chemicon 14-601
Protocol: (§1) Following the pre-incubation, 10 μM ATP was added to initiate the reaction. After 60 minutes at room temperature, Molecular Devices IMAP™ binding solution was added to bind phosphorylated substrate. After 30 minutes of incubation in the presence of the IMAP™ beads, the fluorescence polarization was read and the ratio was reported as mP. IC50 values for compounds and EC50 values for ATP were calculated using the Prism software from Graphpad.

ROCK2 = biological target: T2, ROCK2 (Homo sapiens, UniProt O75116); test: Rho kinase inhibition assay (IMAP fluorescence polarization), ROCK2; type: biochemical;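 further: kinase reaction started with 10 µM ATP and run 60 min at room temperature, then phosphorylated substrate captured on IMAP beads for 30 min and fluorescence polarization read in mP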
T2 construct: purchased Upstate/Chemicon 14-451
Protocol: as §1

human neutrophils = test: Human neutrophil chemotaxis induced by fMLP (modified Boyden chamber); type: cell-based
Source text: This assay is an in vitro assay of neutrophil chemotaxis that can be used to evaluate the ability of Rho Kinase inhibitor compounds of Formula I or II to inhibit the migration of human neutrophils, an inflammatory cell that has been implicated in the pathophysiology of allergic conjunctivitis.
Peripheral blood from healthy human volunteers was collected and the neutrophils were isolated by Ficoll-paque density centrifugation followed by dextran sedimentation and hypotonic lysis of the red blood cells. Neutrophil chemotaxis was assessed using a modified Boyden Chamber (Neuroprobe, 96-well) with a 3 μm pore polycarbonate membrane. The ability of the tested compounds to block chemotaxis induced by a 1 μM fMLP challenge during a one hour incubation at 37° C. with 5% CO2 was assessed in a dose response manner.

[1] = system: A-10 rat thoracic aorta cells; test: PDGF-stimulated smooth muscle cell proliferation assay (BrdU incorporation); type: cell-based; conditions: A-10 cells, 10 ng/mL PDGF, BrdU incorporation, percent of total challenge-stimulated proliferation; for Percent of PDGF Induced Proliferation at 1 μM Avg: 1 μM test compound; for Percent of PDGF Induced Proliferation at 10 μM Avg: 10 μM test compound;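 on all read-outs here: cells kept in serum-free medium, BrdU allowed to incorporate for 24 h, then incorporated label detected fluorometrically with an anti-BrdU antibody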
Akt3 human enzyme = biological target: T3, Akt3 human enzyme (Homo sapiens, UniProt Q9Y243); test: Akt3 inhibition assay (IMAP FP); type: biochemical;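 further: kinase reaction run 60 min at room temperature after 30 µM ATP start, phosphorylated substrate captured on IMAP beads and read as fluorescence polarization (mP)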
T3 construct: purchased Upstate Chemicon 14-502

p70S6K human enzyme = biological target: T4, p70S6K human enzyme (Homo sapiens, UniProt P23443, T412E); test: p70S6K inhibition assay (IMAP FP); type: biochemical;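 further: kinase reaction run at room temperature, phosphorylated substrate captured on IMAP beads and read as fluorescence polarization in mP, IC50 then converted to Ki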
T4 construct: purchased Upstate Chemicon 14-486

[2] = Compound plasma concentrations in unsensitized mice at 15 min post administration; type: in vivo; conditions: mouse, 15 μmol/kg; mean compound plasma concentration in mice at 15 minutes post oral administration; read-out: Mouse Oral PK
[3] = Rat oral pharmacokinetics (plasma); type: in vivo; conditions: 20-30 μmol/kg; for half-life: mean n = 3, read-out: t½ (converted)
[4] = 10 μM ATP, read-out: ROCK2 Ki, Avg
[5] = Neutrophil, 1 h, 1 μM fMLP challenge, one hour, read-out: Chemotaxis Avg. IC50
[6] = average IC50 for inhibition of fMLP-induced neutrophil chemotaxis, read-out: Chemotaxis IC50
[7] = 30 μM ATP, Ki=IC50/(1+([ATP Challenge]/EC50 ATP)), read-out: Akt3 Ki, Avg
[8] = 30 μM ATP, Ki=IC50/(1+([ATP Challenge]/EC50 ATP)), read-out: p70S6K Ki, Avg
[9] = average Ki, read-out: p70S6K Ki
[10] = male, CD Sprague Dawley, mean n = 3
[11] = male, CD Sprague Dawley, mean n = 3, read-out: Cmax
[12] = male, CD Sprague Dawley, mean n = 3, read-out: Tmax

T2 sequence (O75116 11-552 limits assumed): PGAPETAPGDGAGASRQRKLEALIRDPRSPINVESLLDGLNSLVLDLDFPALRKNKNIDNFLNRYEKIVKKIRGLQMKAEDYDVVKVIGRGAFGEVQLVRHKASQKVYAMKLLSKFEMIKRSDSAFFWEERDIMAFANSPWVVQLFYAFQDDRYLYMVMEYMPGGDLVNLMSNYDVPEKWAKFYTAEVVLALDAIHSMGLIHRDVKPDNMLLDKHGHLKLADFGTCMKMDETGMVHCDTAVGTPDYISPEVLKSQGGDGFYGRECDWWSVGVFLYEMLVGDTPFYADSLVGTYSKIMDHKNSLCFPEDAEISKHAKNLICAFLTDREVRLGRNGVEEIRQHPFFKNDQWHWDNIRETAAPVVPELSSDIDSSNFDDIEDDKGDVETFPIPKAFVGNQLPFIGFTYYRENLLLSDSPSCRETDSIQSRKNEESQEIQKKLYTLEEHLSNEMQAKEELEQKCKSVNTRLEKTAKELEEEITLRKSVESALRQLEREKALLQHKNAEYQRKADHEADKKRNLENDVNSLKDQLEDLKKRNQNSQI
T3 sequence (Q9Y243 whole entry): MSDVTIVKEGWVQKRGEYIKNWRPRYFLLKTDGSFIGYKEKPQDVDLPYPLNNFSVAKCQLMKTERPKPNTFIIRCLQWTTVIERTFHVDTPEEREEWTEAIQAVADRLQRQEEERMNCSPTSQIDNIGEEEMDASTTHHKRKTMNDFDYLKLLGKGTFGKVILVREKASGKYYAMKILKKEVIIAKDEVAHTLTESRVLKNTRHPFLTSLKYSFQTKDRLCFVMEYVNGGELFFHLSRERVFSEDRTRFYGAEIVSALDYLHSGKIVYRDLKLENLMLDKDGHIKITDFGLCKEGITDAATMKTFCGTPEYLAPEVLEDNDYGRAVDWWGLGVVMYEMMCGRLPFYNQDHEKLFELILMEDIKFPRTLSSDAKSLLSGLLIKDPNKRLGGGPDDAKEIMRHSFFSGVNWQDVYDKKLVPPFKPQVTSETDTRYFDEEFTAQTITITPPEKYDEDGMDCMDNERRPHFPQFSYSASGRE
T4 sequence (P23443 1-421 T412E limits assumed): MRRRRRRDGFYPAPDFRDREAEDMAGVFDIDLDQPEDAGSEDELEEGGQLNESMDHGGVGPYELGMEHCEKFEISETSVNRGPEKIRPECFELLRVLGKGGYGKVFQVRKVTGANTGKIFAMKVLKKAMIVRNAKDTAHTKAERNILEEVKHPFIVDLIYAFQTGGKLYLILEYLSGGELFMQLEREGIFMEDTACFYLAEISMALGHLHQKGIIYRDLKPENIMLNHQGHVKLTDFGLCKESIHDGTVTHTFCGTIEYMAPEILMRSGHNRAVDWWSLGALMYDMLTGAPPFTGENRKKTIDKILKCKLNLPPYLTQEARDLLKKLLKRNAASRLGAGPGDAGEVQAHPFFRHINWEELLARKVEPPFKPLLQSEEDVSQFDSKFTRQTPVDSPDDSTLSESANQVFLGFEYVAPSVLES
T1 sequence (Q13464 17-535 limits assumed): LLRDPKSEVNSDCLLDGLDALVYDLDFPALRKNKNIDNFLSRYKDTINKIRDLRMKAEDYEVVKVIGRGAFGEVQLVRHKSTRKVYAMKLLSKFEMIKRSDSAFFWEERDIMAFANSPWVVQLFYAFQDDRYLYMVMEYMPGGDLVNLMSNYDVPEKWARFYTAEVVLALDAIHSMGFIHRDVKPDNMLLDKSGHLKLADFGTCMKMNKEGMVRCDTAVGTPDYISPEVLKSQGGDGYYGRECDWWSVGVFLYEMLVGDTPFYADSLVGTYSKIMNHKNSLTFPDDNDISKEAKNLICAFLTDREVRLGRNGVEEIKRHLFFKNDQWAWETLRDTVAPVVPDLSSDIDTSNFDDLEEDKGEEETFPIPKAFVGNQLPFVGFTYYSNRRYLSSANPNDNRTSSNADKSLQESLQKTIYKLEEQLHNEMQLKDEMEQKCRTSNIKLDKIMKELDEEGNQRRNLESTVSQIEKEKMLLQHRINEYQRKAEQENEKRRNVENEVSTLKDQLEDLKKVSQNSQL

| Compound | Ki (ROCK1; Avg, 10 μM ATP) [nM] | Ki (ROCK1; average Ki) [nM] | Ki (ROCK2; [4]) [nM] | Ki (ROCK2; average Ki, read-out: ROCK2 Ki) [nM] | IC50 (human neutrophils; [5]) [nM] | IC50 (human neutrophils; [6]) [nM] | Percent of PDGF Induced Proliferation at 1 μM Avg [1] [%] | Percent of PDGF Induced Proliferation at 10 μM Avg [1] [%] | Ki (Akt3 human enzyme; [7]) [nM] | Ki (Akt3 human enzyme; average Ki, read-out: Akt3 Ki) [nM] | Ki (p70S6K human enzyme; [8]) [nM] | Ki (p70S6K human enzyme; [9]) [nM] | concentration at 15 min [2] [nM] | Vz_F ([3]; mean n = 3) | other results |
| --- | --- | --- | --- | --- | --- | --- | --- | --- | --- | --- | --- | --- | --- | --- | --- |
| c1cc2cc(CN3CCC[C@@H](Nc4ccc5[nH]ncc5c4)C3)ccc2s1 [Compound 1.138, (R)-N-(1-(benzo[b]thiophen-5-ylmethyl)piperidin-3-yl)-1H-indazol-5-amine] | 36.3 | 41.1 | 7.2 | 6.3 | 1850 | 1900 | 46.3 | 27.0 | 91.3 | 91.3 | 444 | 444 | 1860 | – | – |
| OCCOc1cccc(CN2CCC[C@@H](Nc3cccc4cnccc34)C2)c1 [Compound 2.034, (R)-2-(3-((3-(isoquinolin-5-ylamino)piperidin-1-yl)methyl)phenoxy)ethanol] | 1000 | – | 221 | – | 4730 | – | – | – | – | – | – | – | – | – | – |
| C[C@@H](N)c1ccc(C(=O)Nc2ccnc3[nH]ccc23)cc1 [Compound Y-39983, reference compound] | – | – | – | – | 1390 | – | – | – | – | – | – | – | – | – | – |
| CS(=O)(=O)Nc1cccc(CN2CC[C@H](Nc3cccc4cnccc34)C2)c1 [Compound 2.035, (S)-N-(3-((3-(isoquinolin-5-ylamino)pyrrolidin-1-yl)methyl)phenyl)methanesulfonamide] | 601 | – | 202 | – | 6600 | – | – | – | – | – | – | – | – | – | – |
| Cc1ccc(CN2CC[C@@H](Nc3cccc4cnccc34)C2)cc1 [Compound 2.025, (R)-N-(1-(4-methylbenzyl)pyrrolidin-3-yl)isoquinolin-5-amine] | 6.9 | 6.9 | 2.9 | 2.9 | 1650 | 1700 | 69.8 | 68.0 | 966 | 966 | 499 | 499 | 74 | – | – |
| CCS(=O)(=O)Nc1cccc(CN2CCC[C@@H](Nc3ccc4[nH]ncc4c3)C2)c1 [Compound 1.123, (R)-N-(3-((3-(1H-indazol-5-ylamino)piperidin-1-yl)methyl)phenyl)ethanesulfonamide] | 82.3 | 82.3 | 9.6 | 9.6 | 3050 | 3100 | – | – | 2410 | 2410 | 2810 | 2810 | 71 | 14.8 L/kg | AUC(0-t) [3, 10]: 2.06 µM·h; Cmax [3, 11]: 2040 nM; Tmax [3, 12]: 19.8 min; half-life ([3]; male, CD Sprague Dawley): 54 min |
| CCS(=O)(=O)Nc1cccc(CN2CCC[C@H](Nc3ccc4[nH]ncc4c3)C2)c1 [Compound 1.124, (S)-N-(3-((3-(1H-indazol-5-ylamino)piperidin-1-yl)methyl)phenyl)ethanesulfonamide] | 64.5 | 64.5 | 3.3 | 3.3 | 3400 | 3400 | 68.5 | 61.6 | 7870 | 7870 | 3330 | 3330 | 118 | 93.4 L/kg | AUC(0-t) [3, 10]: 0.535 µM·h; Cmax [3, 11]: 415 nM; Tmax [3, 12]: 30 min; half-life ([3]; male, CD Sprague Dawley): 83.4 min |
| CCc1ccc(CN2CCC[C@@H](Nc3ccc4[nH]ncc4c3)C2)cc1 [Compound 1.136, (R)-N-(1-(4-ethylbenzyl)piperidin-3-yl)-1H-indazol-5-amine] | 40.3 | 25.8 | 5.4 | 5.1 | 2600 | 2600 | – | – | 290 | 290 | 1240 | 1240 | – | BLQ | AUC (0-last) ([3]; mean n = 3): BLQ; Cmax ([3]; mean n = 3): BLQ; Tmax ([3]; mean n = 3): BLQ; t½ ([3]; mean n = 3): BLQ |
| OCCOc1cccc(CN2CC[C@@H](Nc3cccc4cnccc34)C2)c1 [Compound 2.039, (R)-2-(3-((3-(isoquinolin-5-ylamino)pyrrolidin-1-yl)methyl)phenoxy)ethanol] | 18.8 | 18.8 | 6.7 | 6.7 | 1640 | 1600 | – | – | 1990 | 1990 | 1010 | 1010 | 92 | 59.4 L/kg | AUC(0-t) [3, 10]: 0.905 µM·h; Cmax [3, 11]: 783 nM; Tmax [3, 12]: 19.8 min; half-life ([3]; male, CD Sprague Dawley): 67.8 min |
| CSc1ccc(CN2CC[C@@H](Nc3cccc4cnccc34)C2)cc1 [Compound 2.026, (R)-N-(1-(4-(methylthio)benzyl)pyrrolidin-3-yl)isoquinolin-5-amine] | 38 | 38 | 13 | 13 | – | – | 74.5 | 52.0 | 2080 | 2080 | 536 | 536 | 629 | BLQ | IC50 (human neutrophils; Neutrophil, 1 h, read-out: Chemotaxis Avg. IC50): 3800 nM; IC50 (human neutrophils; Neutrophil, read-out: Chemotaxis IC50): 3800 nM; AUC (0-last) ([3]; mean n = 3): BLQ; Cmax ([3]; mean n = 3): BLQ; Tmax ([3]; mean n = 3): BLQ; t½ ([3]; mean n = 3): BLQ |
| CS(=O)(=O)Nc1cccc(CN2CCC(Nc3ccc4[nH]ncc4c3)C2)c1 (centres unmarked) [Compound 1.087, N-(3-((3-(1H-indazol-5-ylamino)pyrrolidin-1-yl)methyl)phenyl)methanesulfonamide] | 84.1 | – | 15.4 | – | 4500 | – | – | – | – | – | – | – | – | – | – |
| OCCOc1cccc(CN2CCC[C@H](Nc3cccc4cnccc34)C2)c1 [Compound 2.036, (S)-2-(3-((3-(isoquinolin-5-ylamino)piperidin-1-yl)methyl)phenoxy)ethanol] | 579 | – | 233 | – | 2770 | – | – | – | – | – | – | – | – | – | – |
